The values that follow come from US20250051327A1, “MALT-1 MODULATORS” (EXSCIENTIA AI LIMITED, priority 2020, published 2025).

Where two headings read alike, the source gives them in different places.

For test [1], the system named is IL-2 secretion by human effector memory T cells (TEM). Put plainly: Effector memory T cells IL-2 release assay. In kind it is cell-based. The settings on record: human CD4+ effector memory T cells, CD3/CD28 bead stimulation, 24 h, read-out: CD4TC IL2 IC50. A digest of the protocol:
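Human CD4+ effector memory T cells from healthy-donor buffy coats were stimulated with anti-CD3/CD28 Dynabeads and exposed to 10 semi-log compound doses (0.1% DMSO) for 24 h at 37 °C. Supernatant IL-2 was measured by HTRF, and IC50 came from a 4-parameter logistic fit to maximal IL-2. Viability was checked by flow cytometry.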

Test [2] concerns the target Recombinant human MALT-1 (amino acids 340-824) (Homo sapiens (Human), UniProt Q9UDY8). Briefly: MALT-1 inhibition assay (fluorogenic substrate Ac-LRSR-Rh110-DP). The settings on record: recombinant human MALT-1, substrate Ac-LRSR-Rh110-DP. Format: biochemical. The method in brief:
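Reactions were started with fluorogenic substrate Ac-LRSR-Rh110-DP (10 μM final) against 3 nM enzyme and kept dark at 25° C for 60 minutes. IC50 values came from 4-parameter logistic fits of percent inhibition calculated from relative fluorescence units.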

Recombinant human MALT-1 (amino acids 340-824), sequence (Q9UDY8 340-824): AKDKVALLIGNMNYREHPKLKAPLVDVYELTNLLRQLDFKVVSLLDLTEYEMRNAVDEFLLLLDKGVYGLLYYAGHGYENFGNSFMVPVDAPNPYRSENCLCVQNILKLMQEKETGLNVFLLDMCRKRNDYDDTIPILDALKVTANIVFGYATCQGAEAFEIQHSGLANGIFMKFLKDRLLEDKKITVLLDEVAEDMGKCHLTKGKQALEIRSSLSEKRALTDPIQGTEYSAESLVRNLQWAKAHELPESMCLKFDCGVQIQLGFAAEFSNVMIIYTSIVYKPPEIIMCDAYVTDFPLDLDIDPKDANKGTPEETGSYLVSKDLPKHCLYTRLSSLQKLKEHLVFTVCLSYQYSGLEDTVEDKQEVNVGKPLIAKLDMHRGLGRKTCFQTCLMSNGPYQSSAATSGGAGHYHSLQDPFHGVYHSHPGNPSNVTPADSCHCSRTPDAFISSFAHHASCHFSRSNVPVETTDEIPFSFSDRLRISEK

As a reminder, the IC50 is the concentration that gives 50% inhibition. For `CN(C(=O)C1CS(=O)(=O)C1)[C@@H](c1ccc(N2CCCc3c2cnc2cc(Cl)nn32)cc1)C(F)(F)F` [CPD0021575, N-[(1S)-1-(4-{4-chloro-2,3,7,10-tetraazatricyclo[7.4.0.0^2,6]trideca-1(9),3,5,7-tetraen-10-yl}phenyl)-2,2,2-trifluoroethyl]-N-methyl-1,1-dioxo-1λ^6-thietane-3-carboxamide], the IC50 was 0.128 µM in test [1] (T-cell) and 0.123 µM in test [2].
Regarding `CC1CCc2c(cnc3cc(Cl)nn23)N1c1ccc([C@H](N(C)C(=O)C2CCS(=O)(=O)CC2)C(F)(F)F)cc1` (stereo partly drawn) [CPD0072805, N-[(1S)-1-{4-[(11rel-S)-4-chloro-11-methyl-2,3,7,10-tetraazatricyclo[7.4.0.0^2,6]trideca-1(9),3,5,7-tetraen-10-yl]phenyl}-2,2,2-trifluoroethyl]-N-methyl-1,1-dioxo-1λ^6-thiane-4-carboxamide], the IC50 is 1.02 µM in test [1] and 0.172 µM in test [2].
Consider `CN(C(=O)C1CCS(=O)(=O)CC1)[C@@H](c1ccc(N2CCC(C)(C)c3c2cnc2cc(Cl)nn32)nc1)C(F)(F)F` [CPD0021562, N-[(1S)-1-(6-{4-chloro-13,13-dimethyl-2,3,7,10-tetraazatricyclo[7.4.0.0^2,6]trideca-1(9),3,5,7-tetraen-10-yl}pyridin-3-yl)-2,2,2-trifluoroethyl]-N-methyl-1,1-dioxo-1λ^6-thiane-4-carboxamide], for which the IC50 in test [1] (T-cell) was 0.103 µM; in test [2] it was 0.08 µM.
On to `CN(C(=O)[C@H]1CCN(C(=O)CO)C1)[C@@H](c1ccc(N2CCCc3c2cnc2cc(Cl)nn32)cc1)C(F)(F)F` (relative stereo) [CPD0073977, (3rel-S)—N-[(1S)-1-(4-{4-chloro-2,3,7,10-tetraazatricyclo[7.4.0.0^2,6]trideca-1(9),3,5,7-tetraen-10-yl}phenyl)-2,2,2-trifluoroethyl]-1-(2-hydroxyacetyl)-N-methylpyrrolidine-3-carboxamide], for which the IC50 in test [1] (T-cell) came to 0.115 µM; in test [2], 0.039 µM.
For `CN(C(=O)C1CCCOC1)[C@@H](c1ccc(N2CCCc3c2cnc2cc(Cl)nn32)cc1)C(F)(F)F` (stereo partly drawn) [CPD0021572, N-[(1S)-1-(4-{4-chloro-2,3,7,10-tetraazatricyclo[7.4.0.0^2,6]trideca-1(9),3,5,7-tetraen-10-yl}phenyl)-2,2,2-trifluoroethyl]-N-methyloxane-3-carboxamide] the same measures were 0.193 µM and 0.166 µM.
For `CN(C(=O)[C@H]1C[C@@H](C(=O)O)C1)[C@@H](c1ccc(N2CCCc3c2cnc2cc(Cl)nn32)cc1)C(F)(F)F` [CPD0072934, (cis)-3-{[(1S)-1-(4-{4-chloro-2,3,7,10-tetraazatricyclo[7.4.0.0^2,6]trideca-1(9),3,5,7-tetraen-10-yl}phenyl)-2,2,2-trifluoroethyl](methyl)carbamoyl}cyclobutane-1-carboxylic acid] the same measures were 0.422 µM and 0.072 µM.
Take `COc1ccc2ncc(Nc3ccc([C@H](N(C)C(=O)C4CCS(=O)(=O)CC4)C(F)(F)F)cc3)c(C(C)OC)c2n1` (stereo partly drawn) [CPD0019079, N-methyl-1,1-dioxo-N-[(1S)-2,2,2-trifluoro-1-(4-{[6-methoxy-4-(1-methoxyethyl)-1,5-naphthyridin-3-yl]amino}phenyl)ethyl]-1λ^6-thiane-4-carboxamide]: the IC50 stood at 0.102 µM in test [1] (T-cell) and 0.147 µM in test [2].
With `CN(C(=O)[C@H]1C[C@H]([S@@+](C)(=N)[O-])C1)[C@@H](c1ccc(N2CCCc3c2cnc2cc(Cl)nn32)cc1)C(F)(F)F` [CPD0073225, (1S,3r)-N-[(1S)-1-(4-{4-chloro-2,3,7,10-tetraazatricyclo[7.4.0.0^2,6]trideca-1(9),3,5,7-tetraen-10-yl}phenyl)-2,2,2-trifluoroethyl]-3-[(S)-imino(methyl)oxo-λ^6-sulfanyl]-N-methylcyclobutane-1-carboxamide], the IC50 in test [1] (T-cell) turned out to be 0.122 µM; in test [2], 0.053 µM.
For `CN(C(=O)[C@H]1C[C@H]([S@+](C)(=N)[O-])C1)[C@@H](c1ccc(N2CCCc3c2cnc2cc(Cl)nn32)cc1)C(F)(F)F` [CPD0073226, (1R,3s)-N-[(1S)-1-(4-{4-chloro-2,3,7,10-tetraazatricyclo[7.4.0.0^2,6]trideca-1(9),3,5,7-tetraen-10-yl}phenyl)-2,2,2-trifluoroethyl]-3-[(S)-imino(methyl)oxo-λ^6-sulfanyl]-N-methylcyclobutane-1-carboxamide] the same measures were 0.105 µM and 0.06 µM.
In the case of `CC(C)C(=O)N(C)[C@@H](c1ccc(N2CCCc3c2cnc2cc(Cl)nn32)cc1)C(F)(F)F` [CPD0019340, N-[(1S)-1-(4-{4-chloro-2,3,7,10-tetraazatricyclo[7.4.0.0^2,6]trideca-1(9),3,5,7-tetraen-10-yl}phenyl)-2,2,2-trifluoroethyl]-N,2-dimethylpropanamide], the results for the half-inhibitory concentration (IC50) in test [1] (T-cell) and in test [2] were 0.139 µM and 0.13 µM, respectively.
On to `C[C@@H]1CCN(c2ccc([C@H](N(C)C(=O)[C@H]3CC[S@](=N)(=O)CC3)C(F)(F)F)cc2)c2cnc3cc(F)nn3c21` (relative stereo) [CPD0074555, (1rel s, 4rel s)1-imino-N-methyl-1-oxo-N-[(1S)-2,2,2-trifluoro-1-[4-[(13 rel R)-4-fluoro-13-methyl-2,3,7,10-tetrazatricyclo[7.4.0.0^2,6]trideca-1(9),3,5,7-tetraen-10-yl]phenyl]ethyl]thiane-4-carboxamide], for which the half-maximal inhibitory concentration (IC50) is 0.101 µM in test [1] (T-cell) and 0.035 µM in test [2].
For `CN(C(=O)[C@H]1CC[S@](=N)(=O)CC1)[C@@H](c1ccc(N2CCC3(CC3)c3c2cnc2cc(F)nn32)cc1)C(F)(F)F` (relative stereo) [CPD0072853, (1rel-r,4rel-r)-1-imino-N-methyl-1-oxo-N-[(1S)-2,2,2-trifluoro-1-(4-{4′-fluoro-2′,3′,7′,10′-tetraazaspiro[cyclopropane-1,13′-tricyclo[7.4.0.0^2,6]tridecane]-1′(9′),3′,5′,7′-tetraen-10′-yl}phenyl)ethyl]-1λ^6-thiane-4-carboxamide], in that order: 0.062 µM and 0.023 µM.
For `COC[C@@]1(C)CCN(c2ccc([C@H](N(C)C(=O)[C@H]3CC[S@](=N)(=O)CC3)C(F)(F)F)cc2)c2cnc3cc(Cl)nn3c21` (relative stereo) [CPD0073134, (1rel-r,4rel-r)-N-[(1S)-1-[4-[(13rel-S)-4-chloro-13-(methoxymethyl)-13-methyl-2,3,7,10-tetrazatricyclo[7.4.0.0^2,6]trideca-1(9),3,5,7-tetraen-10-yl]phenyl]-2,2,2-trifluoro-ethyl]-1-imino-N-methyl-1-oxo-1λ^6-thiane-4-carboxamide], in that order: 0.057 µM and 0.085 µM.
For `CN(C(=O)CN1CCCS1(=O)=O)[C@@H](c1ccc(N2CCCc3c2cnc2cc(Cl)nn32)cc1)C(F)(F)F` [CPD0073085, N-[(1S)-1-(4-{4-chloro-2,3,7,10-tetraazatricyclo[7.4.0.0^2,6]trideca-1(9),3,5,7-tetraen-10-yl}phenyl)-2,2,2-trifluoroethyl]-2-(1,1-dioxo-1λ^6,2-thiazolidin-2-yl)-N-methylacetamide], in that order: 0.286 µM and 0.154 µM.
Regarding `CN(C(=O)C1CC[S+]([O-])CC1)[C@@H](c1ccc(N2CCCc3c2cnc2cc(Cl)nn32)cc1)C(F)(F)F` (stereo partly shown) [CPD0019481], the IC50 in test [1] (T-cell) was determined as 0.086 µM; in test [2] it was 0.076 µM.
For `COc1cc2ncc3c(n2n1)CCCN3c1ccc([C@H](N(C)C(=O)C2CCS(=O)(=O)CC2)C(F)(F)F)cc1` [CPD0019576, N-methyl-1,1-dioxo-N-[(1S)-2,2,2-trifluoro-1-(4-{4-methoxy-2,3,7,10-tetraazatricyclo[7.4.0.0^2,6]trideca-1(9),3,5,7-tetraen-10-yl}phenyl)ethyl]-1λ^6-thiane-4-carboxamide], in that order: 1.25 µM and 0.313 µM.
For `CO[C@@H](C)c1c(Nc2ccc(C(N(C)C(=O)C3CCS(=O)(=O)CC3)C(F)(F)F)cc2)cnn2cc(Cl)nc12` (stereo partly shown) [CPD0072849] the same measures were 0.055 µM and 0.037 µM.
Take `COc1ccc2ncc(Nc3ccc([C@H](N(C)C(=O)[C@H]4CCN(C(=O)CO)C4)C(F)(F)F)cc3)c([C@H](C)OC)c2n1` (relative stereo) [CPD0075882, (3 rel S)-1-(2-hydroxyacetyl)-N-methyl-N-[(1S)-2,2,2-trifluoro-1-[4-[[6-methoxy-4-[(1 rel S)-1-methoxyethyl]-1,5-naphthyridin-3-yl]amino]phenyl]ethyl]pyrrolidine-3-carboxamide]: the figures for the IC50 in test [1] (T-cell) and in test [2] were 0.04 µM and 0.064 µM, respectively.
With `CN(C(=O)[C@@H]1CS(=O)(=O)CC12CC2)[C@@H](c1ccc(N2CCCc3c2cnc2cc(Cl)nn32)cc1)C(F)(F)F` (relative stereo) [CPD0073968, (7rel-R)-N-[(1S)-1-(4-{4-chloro-2,3,7,10-tetraazatricyclo[7.4.0.0^2,6]trideca-1(9),3,5,7-tetraen-10-yl}phenyl)-2,2,2-trifluoroethyl]-N-methyl-5,5-dioxo-5λ^6-thiaspiro[2.4]heptane-7-carboxamide], the IC50 was determined as 0.199 µM in test [1] (T-cell) and 0.1 µM in test [2].
`COc1cc([C@H](N(C)C(=O)C2CCS(=O)(=O)CC2)C(F)(F)F)ccc1N1CCCc2c1cnc1cc(Cl)nn21` [CPD0073040, N-[(1S)-1-(4-{4-chloro-2,3,7,10-tetraazatricyclo[7.4.0.0^2,6]trideca-1(9),3,5,7-tetraen-10-yl}-3-methoxyphenyl)-2,2,2-trifluoroethyl]-N-methyl-1,1-dioxo-1λ^6-thiane-4-carboxamide]: the figures for the IC50 in test [1] (T-cell) and in test [2] were 0.642 µM and 0.368 µM, respectively.
